Test [1] concerns Dissociated cortical neuron cultures. In words: cortical neuron assay (neurite outgrowth). It counts as cell-based. The conditions noted are these: Cortical neurone, rat E15 cortical neurons, compound for 72 hours, read-out: EC50 in cortical neuron assays. How it is done: Dissociated cortical neuron cultures were prepared as previously described (Pong et al., 2001). Briefly, embryonic day 15 rat fetuses were collected and dissected in ice-cold PBS. Dissected cortices were pooled together and transferred to an enzymatic dissociation medium containing papain. After 30 minutes, the tissue was mechanically triturated with a fire-polished glass Pasteur pipette. Single-cell suspensions in complete media were seeded on poly-L-ornithine and laminin coated 96-well plates. After 24 hours, cultures were treated with various concentrations of compound for 72 hours. The cultures were then fixed and stained with an anti-tubulin primary antibody (TUJ-1) and a fluorescent-tagged secondary antibody. Neurite outgrowth was determined by using the Enhanced Neurite Outgrowth (ENO) algorithm with the Cellomics ArrayScan and expressed as average neurite length or total neurite length per cell.

Test [2] relates to Mesencephalic dopaminergic neuron cultures. In words: dopaminergic (3H-dopamine) uptake assay after MPP+ exposure. The conditions noted are these: Neuron, rat E15 mesencephalic dopaminergic neurons, read-out: EC50 in dopaminergic uptake assays. It counts as cell-based. How it is done: Mesencephalic dopaminergic neuron cultures were prepared as described in Pong et al., J. Neurochem. 69: 986-994, 1997, which is incorporated herein by reference in its entirety. Embryonic day 15 (E15) rat fetuses were collected and dissected in ice-cold phosphate-buffered saline (PBS). The ventral piece of tissue compromising the mesencephalic dopaminergic region was dissected out. Dissected pieces of tissue were pooled together and transferred to an enzymatic dissociation medium containing 20 IU/mL papain in Earle's balanced salt solution (Worthington Biochemical, Freehold, N.J., USA) and incubated for 60 minutes at 37° C. After enzymatic dissociation, the papain solution was aspirated and the tissue mechanically triturated with a fire-polished glass Pasteur pipette in complete medium (equal volumes of minimum essential medium (MEM) and F-12 nutrient mixture (GibcoBRL) supplemented with 0.1 mg/mL apotransferrin and 2.5 μg/mL insulin) containing 2,000 IU/mL DNase and 10 mg/mL ovomucoid protease inhibitor.
For dopamine uptake experiments, single-cell suspensions in complete media were seeded on poly-L-ornithine and laminin coated 24-well plates. The cultures were maintained for seven days prior to experimentation. Cultures were pretreated with various concentrations of the compound for 24 hours, then exposed to 10 mM MPP+ for 1 hour. Following the 1 hour incubation, media was exchanged three times and fresh compound was added for an additional 48 hours.
After 48 hours growth of mesencephalic dopaminergic neuron cultures following MPP+ exposure, high-affinity 3H-dopamine uptake was performed using a modified method described by Prochiantz et al., Nature 293: 570-572, 1981, which is incorporated herein by reference. Cultures were washed with pre-warmed PBS containing 5.6 mM glucose and 1 mM ascorbic acid. Cultures were then incubated for 15 minutes at 37° C. with 50 nM 3H-dopamine (31 Ci/mmol, DuPont-NEN, Wilmington, Del., USA). The cultures were washed twice with buffer and lysed with 0.5 N NaOH. The lysate was transferred to a scintillation vial containing Ultima Gold scintillation cocktail and radioactivity was determined with a liquid scintillation counter. Alternatively, culture lysates can be washed twice with buffer, incubated for 2 hours at room temperature with Optiphase Supermix scintillation cocktail (Wallac Scintillation Products, Gaithersburg, Md., USA), and radioactivity measured with a liquid scintillation counter.

The subject of test [3] is Spinal cord neuron cultures. Kind of test: spinal cord neuron assay. It counts as cell-based. The settings on record: rat E15 spinal cord neurons, compound for 72 h, read-out: EC50 in spinal cord neuron assays. How it is done: Spinal cord neuron cultures were prepared from embryonic day 15 (E15) rat embryos (Sprague-Dawley, Charles River Laboratories, Wilmington, Mass.). The embryos were collected and their spinal cords were removed in ice-cold phosphate-buffered saline (PBS) without Ca^2+ and Mg^2+. Dissected pieces of spinal cord tissue were pooled together and transferred to an enzymatic dissociation media containing 20 IU/mL papain in Earle's balanced salt solution (Worthington Biochemical, Freehold, N.J.) and incubated for 30 minutes at 37° C. After enzymatic dissociation, the papain solution was aspirated and the tissue mechanically triturated with a fire-polished Pasteur pipette in complete media [Neurobasal Medium with B-27 supplement (Gibco, Grand Island, N.Y.), 100 IU/mL penicillin, 100 μg/mL streptomycin, 3.3 μg/mL aphidicolin, 0.5 mM glutamate] containing 2,000 IU/mL DNase and 10-mg/mL ovomucoid protease inhibitor. Single-cell suspensions in complete media were plated on pre-coated poly-L-ornithine/laminin 96-well plates (Becton-Dickinson, Bedford, Mass.) at a density of 1.0×10^4 cells/well. Spinal cord neurons were maintained for 24 h then exposed to vehicle or various concentrations of compound for 72 h.

The test system of test [4] is human CD4+ T cells. Kind of test: Anti-CD3/-CD28 stimulation and IL-2 re-stimulation assay. It counts as cell-based. As for the experimental part:
(§1) In the following assays, human CD4+ T cells were purified by negative selection from peripheral blood lymphocytes using RosetteSep as per manufacture's instructions (StemCell Technologies, Inc. Vancouver, British Columbia).
Tosyl-activated magnetic microspheres (Dynal, Great Neck, N.Y.) were coated with anti-CD3 Ab (1 μg/10^7 microspheres), and anti-CD28Ab (0.5 μg/10^7 microspheres) as described in Blair et al. J. Immunol., 160:12, 1998. Murine IgG was used to saturate the binding capacity of the microspheres (total protein=5 μg/10^7 microspheres). Protein-coated microspheres were added to purified CD4+ T cells (2×10^6 cells/mL, ratio 1 bead: 1 cell) and activated for 72 hours in RPMI, 10% fetal calf serum, 2 mM glutamine media. Cells were harvested, washed, and cultured overnight in fresh media and re-stimulated with IL-2 as described in Bennett et al., J. Immunol. 170:711, 2003. Briefly, overnight rested cells were recounted, plated (10^5 cells/well) in flat-bottomed 96 well microtiter plates and stimulated with 1 ng/mL human IL-2 (R&D Systems, Minneapolis, Minn.) in the presence of increasing concentrations of compound. Seventy-two hours after culture re-stimulation, plates were pulsed with 1 μCi/well tritiated thymidine and incubated for a 6-16 hour period.

In test [5] the test system is human CD4+ T cells. Kind of test: PMA/ionomycin activation assay. It counts as cell-based. The conditions noted are these: CD4+ T cells stimulated with PMA and ionomycin, tritiated thymidine incorporation, read-out: EC50, inhibition of proliferation. As for the experimental part:
as §1
Proliferation of the compounds was determined using this assay. CD4+ T cells (5×10^5 cells/well) were plated in flat bottomed 96 well microtiter plates in RPMI, 10% fetal calf serum, 2 mM glutamine media and stimulated with PMA (10 ng/mL) and ionomycin (200 ng/mL) in the presence of increasing concentration of compound. Seventy-two hours after activation, 100 μL of culture media was collected for IL-2 determination, an additional 100 μL fresh media was added to each well and cultures labeled with tritiated thymidine (1 μCi/well) for 6 hours. Cultures were harvested and tritiated thymidine incorporation (count per minute, CPM) assessed using a Trilux (Perkin Elmer, Shelton, Conn.). IL-2 production was determined using an ELISA as per manufacture's instructions (R&D Systems, Minneapolis, Minn.).

Test [6] has as its system breast tumor cell line MDA468 (PTEN-mutated). Kind of test: cell-based proliferation assay (MTS), MDA468. How it is done: (§2) In this assay, a cell-based proliferation assay was performed to evaluate the compounds of the invention in inhibiting growth of cells including the breast tumor cell line MDA468 (PTEN-mutated) ATCC No. HTB-132 or prostate tumor cell line LNCap (PTEN-mutated) ATCC CRL-1740. • (i) On day one, cells were plated in 96-well culture plates. • (ii) On day two, compounds were added to cells at a predetermined concentration. • (iii) On day five, cell proliferation was measured by standard MTS assay protocol as described in S A O'Toole et al., Cancer Detection and Prevention, 27(1), 2003. Results were recorded by A490 absorbance using a 96-well format platereader. • (iv) The MTS results (A490 units) from compound-treated wells were then calculated as % control growth relative to the control (untreated) wells on the same culture plate.

For test [7], the system named is prostate tumor cell line LNCap (PTEN-mutated). Kind of test: cell-based proliferation assay (MTS), LNCap. The conditions noted are these: Homo sapiens. How it is done: as §2

The IC50 is the midpoint of a concentration-inhibition curve. In the case of `CO[C@H]1C[C@@H]2CC[C@@H](C)[C@@](O)(O2)C(=O)C(=O)N2CCCC[C@H]2C(=O)O[C@H]([C@H](C)C[C@@H]2CC[C@@H](O)[C@H](OC)C2)CC(=O)[C@H](C)/C=C(\C)[C@@H](O)[C@@H](OC)C(=O)[C@H](C)C[C@H](C)[C@@H]2C=C[C@H](/C=C/1C)ON2c1ccccc1` [Example 1, 9,27-dihydroxy-3-{2-[4-hydroxy-3-methoxycyclohexyl]-1-methylethyl}-10,21-dimethoxy-6,8,12,14,20,26-hexamethyl-37-phenyl-4,9,10,12,13,14,15,18,21,22,23,24,25,26,27,32,33,34,34a-nonadecahydro-3H-23,27-epoxy-18,15-(epoxyimino)pyrido[2,1-c][1,4]oxazacyclohentriacontine-1,5,11,28,29(6H,31H)-pentone], the EC50 was less than 1000 nM in test [1], less than 1000 nM in test [2], less than 1000 nM in test [3] and 200 to 4900 nM in the test with human CD4+ T cells [5]. Moreover, the IC50 in the test on human CD4+ T cells [4] (CD4+ T cells activated with anti-CD3/anti-CD28, re-stimulated with 1 ng/mL human IL-2, read-out: IC50, inhibition of IL-2 production) was less than 1000 nM; in test [6], less than 10 nM; in test [7], less than 10 nM. Moreover, in the test with human CD4+ T cells [4] (CD4+ T cells, IL-2 re-stimulation), the “IL-2 production compared with rapamycin and CCI-779” value is “commensurate”.
